In patent US5166214A, “Use of imidazoles for the treatment of atherosclerosis” (priority 1990, dated 1992) one finds IC50 data, which are given here for 29 molecules.

The assay deals with murine macrophage-like cell line J774.A1. Put plainly: Inhibition of cholesterol esterification in mammalian cells (macrophage assay). The format is cell-based. The settings on record: J774.A1 macrophages loaded with ac-LDL, 14C-oleic acid; read-out: Cholesterol Esterification IC50. As to the method:
B. Assay of the Inhibition of Cholesterol Esterification in Mammalian Cells
The esterification of cholesterol was determined in the murine macrophage-like cell line J774.A1. Cells were seeded in 35 mm wells at a density of 300,000 cells per well in 2 mls of Dulbecco's Eagle Medium (DMEM) supplemented with 10% fetal bovine serum (FBS). Cells were incubated at 37° C. in an atmosphere of 5% CO2 and 93% humidity. After 24 hours the media was changed to 0.68 mls 10% FBS-DMEM containing 34 μg of acetylated human low density lipoprotein (ac-LDL) to increase the intracellular concentration of cholesterol and promote esterification. At 41 hours, various inhibitors were added to the cells in DMSO (10 μl/ml maximum). At 43 hours, the cells were pulsed with 0.1 mM ^14 C-oleic acid (10,000 dpm/nmol) complexed with BSA (bovine serum albumin) to follow cholesterol ester formation. The experiment was terminated at 45 hours by washing the monolayers 3 times with 3 ml of Tris-buffered saline at 4° C. The lipids were extracted by incubating the monolayers with 1.5 ml of hexane:isopropanol (3:2, v/v) for 30 min. under gentle agitation. During this period, 10,000 dpm 3H-cholesteryl linoleate and 10 μg of cholesteryl oleate were added as an internal standard and carrier respectively. The organic solvent was removed and the cells were washed with an additional 1.0 ml of hexane: isopropanol which was combined with the original extract. The cells were allowed to dry overnight, digested with 1.5 ml of 0.2N sodium hydroxide for 1 hour and an aliquot of the solubilized protein used for protein determination using the Lowry method. The organic extract was taken to dryness, the residue resuspended in 100 μl of chloroform and the lipids separated on silica gel impregnated glass fiber plates using a hexane:diethylether:acetic acid (170:30:1, v/v/v) solvent system. Individual lipids were visualized with iodine and the cholesteryl ester spot cut out and transferred to scintillation vials to determine the amount of radioactivity. The conversion of oleic acid to cholesteryl ester in the control averaged 0.54 […] and was increased upon the addition of ac-LDL to about 10.69±0.69 […]. […] It should be noted that many of the intermediates had inhibitory activity in the in vitro ACAT assay and in the macrophage assay.
As for `CCCCCCCCNC(=O)N(CCCCCSc1nc(-c2ccccc2)c(-c2ccccc2)[nH]1)c1c(F)cc(F)cc1F` [Example 208], the half-inhibitory concentration (IC50) is 2.8 µM.
For the molecule `CCCCCCCN(CCCCCSc1nc(-c2ccccc2)c(-c2ccccc2)[nH]1)C(=O)Oc1ccccc1` [Example 402, Phenyl [5-(4,5-diphenyl-1H-imidazol-2-ylthio)pentyl]heptylcarbamate], the IC50 turned out to be 0.4 µM.
For `CCCCCCCN(CCCCCSc1nc(-c2ccccc2)c[nH]1)C(=O)Nc1ccc(F)cc1F` [Example 160, N'-(2,4-difluorophenyl)-N-heptyl-N-[5-(4-phenyl-1H-imidazol-2-ylthio)pentyl]urea], the IC50 was 1.6 µM.
Regarding `CCCCCCCN(CCCCCSc1nc(-c2ccc(C(C)(C)C)cc2)c(-c2ccc(C(C)(C)C)cc2)[nH]1)C(=O)Nc1ccc(F)cc1F` [Example 203], the IC50 is 50 µM.
Take `CCCCCCCCNC(=O)N(CCCCCSc1nc(-c2ccccc2)c(-c2ccccc2)[nH]1)c1ccc(F)cc1F` [Example 206, N-(2,4-difluorophenyl)-N-[5-(4,5-diphenyl-1H-imidazol-2-ylthio)pentyl]-N'-octylurea]: the IC50 worked out at 0.4 µM.
Take `CCCCCCCN(CCCCCSc1nc(-c2ccccc2)cn1-c1ccccc1)C(=O)Nc1ccc(F)cc1F` [Example 259]: the IC50 turned out to be 0.9 µM.
The figure for `CCCCCCCN(CCCCC[S+]([O-])c1nc(-c2ccccc2)c(-c2ccccc2)[nH]1)C(=O)Nc1ccc(F)cc1F` (centres unmarked) [Example 278, N'-(2,4-difluorophenyl)-N-[5-(4,5-diphenyl-1H-imidazol-2-ylsulfinyl)pentyl]-N-heptylurea] is 1.2 µM; for `CCCCCCCN(CCCCCSc1nc(-c2ccccc2)c(-c2ccccc2)[nH]1)C(=O)Cc1ccc(-c2ccccc2)cc1` [Example 343, N-[5-(4,5-diphenyl-1H-imidazol-2-ylthio)pentyl]-N-heptyl[1,1'-biphenyl]-4-acetamide] it is 1.1 µM.
As for `CCCCCCCN(CCCCCCCCSc1nc(-c2ccccc2)c(-c2ccccc2)[nH]1)C(=O)Nc1ccc(F)cc1F` [Example 3, N'-(2,4-difluorophenyl)-N-[8-(4,5-diphenyl-1H-imidazol-2-ylthio)octyl]-N-heptylurea], the IC50 amounted to 17.5 µM.
With `CCCCCCCN(CCCCCSc1nc(-c2ccccc2)c(-c2ccccc2)n1C)C(=O)Nc1ccc(F)cc1F` [Example 6, N'-(2.4-difluorophenyl)-N-heptyl-N-[5-(1-methyl-4,5-diphenyl-1H-imidazol-2-ylthio)pentyl]urea], the IC50 is 3.8 µM.
Take `CCCCCCCN(CCCCCSc1nc(-c2ccccc2)c(-c2ccccc2)[nH]1)C(=S)Nc1c(F)cc(F)cc1F` [Example 298, N-[5-(4,5-diphenyl-1H-imidazol-2-ylthio)pentyl]-N-heptyl-N'-(2,4,6-trifluorophenyl)thiourea]: the IC50 turned out to be 2.5 µM.
The figure for `CCCN(CCCCCSc1nc(-c2ccccc2)c(-c2ccccc2)[nH]1)C(=O)Nc1ccc(F)cc1F` [Example 190] is 2.2 µM; for `CCCCCCCN(CCCCCSc1nc(-c2ccccc2)c(-c2ccccc2)[nH]1)C(=O)Nc1ccc(-c2ccccc2)cc1` [Example 192, N'-[(1,1'-biphenyl)-4-yl]-N-[5-(4,5-diphenyl-1H-imidazol-2-ylthio)pentyl]-N-heptylurea] it is 2 µM; for `CCCCCCCN(CCCCCSc1nc(-c2ccccc2)c(-c2ccccc2)[nH]1)C(=O)c1ccc(F)cc1F` [Example 345] it is 0.3 µM.
In the case of `CCCCCCCN(CCCCCSc1nc(-c2ccccc2)c(-c2ccccc2)[nH]1)C(=S)Nc1ccc(F)cc1F` [Example 276, N'-(2,4-difluorophenyl)-N-[5-(4,5-diphenyl-1H-imidazol-2-ylthio)pentyl]-N-heptylthiourea], the IC50 is 6.1 µM.
As for `CCCCCCCN(CCCCCSc1nc(-c2ccccc2)c(-c2ccccc2)[nH]1)C(=O)CC1CCCCC1` [Example 344], the IC50 turned out to be 0.4 µM.
On to `CCCCCCCN(CCSc1nc(-c2ccccc2)c(-c2ccccc2)[nH]1)C(=O)Nc1ccc(F)cc1F` [Example 189, N'-(2,4-difluorophenyl)-N-[2-(4,5-diphenyl-1H-imidazol-2-ylthio)ethyl]-N-heptylurea], for which the concentration for half-maximal inhibition (IC50) is 2.2 µM.
Take `CCCCCCCN(CCCCCSc1nc(-c2ccccc2)c(-c2ccccc2)[nH]1)C(=O)Nc1c(F)cc(F)cc1F` [Example 71, N-[5-(4,5-diphenyl-1H-imidazol-2-ylthio)pentyl]-N-heptyl-N'-(2,4,6-trifluorophenyl)urea]: the IC50 turned out to be 1.9 µM.
With `CCCCCCCN(CCCCCSc1nc(-c2ccccc2)c(-c2ccccc2)[nH]1)C(=O)NC(C)C` [Example 105, N-[5-(4,5-diphenyl-1H-imidazol-2-ylthio)pentyl]-N-heptyl-N'-(1-methylethyl)urea], the IC50 turned out to be 0.3 µM.
For `CCCCCCCN(CCCCCSc1nc(-c2ccccc2)c(-c2ccccc2)[nH]1)C(=O)c1ccccc1` [Example 346], the IC50 came to 0.5 µM.
Turning to `CCCCCCCN(CCCCCCc1nc(-c2ccccc2)c(-c2ccccc2)[nH]1)C(=O)Nc1ccc(F)cc1F` [Example 339, N'-(2,4-difluorophenyl)-N-[6-(4,5-diphenyl-1H-imidazol-2-yl)hexyl]-N-heptylurea], the IC50 worked out at 4.4 µM.
As to `CCCCCCCN(CCCCCSc1nc(-c2ccccc2)c(-c2ccccc2)[nH]1)C(=N)Nc1ccccc1` [Example 499, N-[5-(4,5-diphenyl-1H-imidazol-2-ylthio)-pentyl]-N-heptyl-N'-phenylguanidine], the IC50 was determined as 3.4 µM.
The value for `CCCCCCCN(CCCCCS(=O)(=O)c1nc(-c2ccccc2)c(-c2ccccc2)[nH]1)C(=O)Nc1ccc(F)cc1F` [Example 281, N'-(2,4-difluorophenyl)-N-[5-[(4,5-diphenyl-1H-imidazol-2-yl)sulfonyl]pentyl]-N-heptylurea] was 3.5 µM.
As for `CCCCCCCN(CCCCCSc1ncc(-c2ccccc2)n1-c1ccccc1)C(=O)Nc1ccc(F)cc1F` [Example 260], the IC50 turned out to be 6 µM.
As to `CCCCCCCN(CCCCCSc1nc(-c2ccccc2)c(-c2ccccc2)[nH]1)C(=O)NCCC` [Example 8, N-[5-(4,5-diphenyl-1H-imidazol-2-ylthio)pentyl]-N-heptyl-N'-propylurea], the IC50 amounted to 0.5 µM.
The value for `CCCCCCCN(CCCCCNc1nc(-c2ccccc2)c(-c2ccccc2)[nH]1)C(=O)Nc1ccc(F)cc1F` [Example 338, N'-(2,4-difluorophenyl)-N-[5-(4,5-diphenyl-1H-imidazol-2-ylamino)pentyl]-N-heptylurea] was 3.4 µM; that for `CCCCCCCN(CCCCCSc1nc(-c2ccccc2)c(-c2ccccc2)[nH]1)C(=O)OC1CCCCC1` [Example 401, cyclohexyl [5-(4,5-diphenyl-1H-imidazol-2-ylthio)pentyl]heptylcarbamate] was 0.4 µM.
Consider `CCCCCCCN(CCCCCSc1nc(-c2ccccc2)c(-c2ccccc2)[nH]1)C(=O)Cc1ccc(F)cc1F` [Example 340, 2,4-difluoro-N-[(5-(4,5-diphenyl-1H-imidazol-2-ylthio)pentyl)]-N-heptylbenzeneacetamide], for which the IC50 was 0.2 µM.
Turning to `CCCCCCCN(CCCCCSc1nc(-c2ccccc2)c(-c2ccccc2)[nH]1)C(=O)NC1CCCCC1` [Example 94, N'-cyclohexyl-N-[5-(4,5-diphenyl-1H-imidazol-2-ylthio)pentyl]-N-heptylurea], the IC50 worked out at 0.1 µM.
